Assay results reported in patent US5300298A, “Methods of treating obesity with purine related compounds” (The Pennsylvania Research Corporation, priority 1992, dated 1994).

System: warm-blooded animal
Assay: Example II: tested as BW1433 was tested in Example I (obesity; ratio of muscle mass to fat)
Format: in vivo, rats
Method: My initial studies were carried out following acute subcutaneous injections of the drug into male Sprague Dawley rats and into lean and into obese Zucker rats. Blood samples (100 microliter) were taken from the tail of the rats and measurements made of serum glycerol^6. Glycerol is an end product of lipolysis and thus an excellent indicator of the rate of whole body lipolysis. […] I discovered that in the absence of the Formula I compound tested, serum glycerol levels only differ slightly when comparing lean and obese animals. Since there is 3-4 times more fat in the obese animal this is good evidence for sluggish lipolysis per g of fat in the obese. The obese animals however seem to mobilize the fat at an earlier time after removal of their food supply (Table 1), since after 6 hours of fasting the obese serum glycerol levels are much higher than the lean.
Next, I studied the effect of chronic treatment with BW1433. For this purpose I employed 2 ml Alzet mini osmotic pumps. Each pump was loaded with 2 ml of a solution containing BW1433 or with vehicle (aqueous solution adjusted to pH II). The amount of BW1433 was adjusted so that the pump delivered either zero, 0.2 mg or 0.4 mg/Kg/hour to each animal. On the first day the animals had the pumps implanted and were given a priming (2 mg/Kg or 4 mg/Kg) dose of the antagonist. Blood was taken prior to surgery and six hours after the animals were removed from their food supply. On each subsequent day animals had free access to food and water overnight, then their food removed for six hours, and a blood sample taken.
In addition to taking blood samples for glycerol analysis, each animal was weighed every day for seven days. After seven days the animals were fasted overnight and a glucose tolerance test given The animals were then sacrificed and 1 ml blood sample taken for serum insulin and serum BW1433 determination drug levels. Insulin levels were measured with RIA kit (Diagnostic Products) and BW1433 levels were measured fluorometrically after HPLC separation at Burroughs Wellcome, Research Triangle Park, North Carolina. […] Nonetheless, when glucose tolerance curves were administered on day 7, drug-related differences could still be seen in all animals studied. […] This is illustrated more clearly in FIG. 4 where the area under the glucose tolerance curve is shown as a bar for each of the 6 groups of animals. […] FIG. 5 is a chart of the change in weight of treated and untreated lean and obese animals. […] The effect on weight change in each case was maximal at day 3, the day when the glycerol values peaked. Based on these remarkable results, the compounds of Formula I can be administered to obese warm-blooded animals as anti-obesity agents, or administered to farm animals to advantageously increase the ratio of muscle mass to fat therein.

SMILES | activity in method of treating obesity in a warm-blooded animal and in increasing the ratio of muscle mass to fat in farm animals
Cn1c(=O)c2nc(-c3ccc(/C=C/C(=O)O)cc3)[nH]c2n(C)c1=O [compound 2, (E)-4-(1,2,3,6-tetrahydro-1,3-dimethyl-2,6-dioxo-9H-purin-8-yl)cinnamic acid] | active and effective
CCCn1c(=O)c2nc(-c3ccc(/C=C/C(=O)O)cc3)[nH]c2n(C)c1=O [compound 3, (E)-4-(1,2,3,6-tetrahydro-3-methyl-2,6-dioxo-1-propyl-9H-purin-8-yl)cinnamic acid] | active and effective
CCn1c(=O)c2nc(-c3ccc(/C=C/C(=O)O)cc3)[nH]c2n(CC)c1=O [compound 4, (E)-4-(1,3-diethyl-1,2,3,6-tetrahydro-2,6-dioxo-9H-purin-8-yl)cinnamic acid] | active and effective
C=CCn1c(=O)c2nc(-c3ccc(/C=C/C(=O)O)cc3)[nH]c2n(CC=C)c1=O [compound 5, (E)-4-(1,3-diallyl-1,2,3,6-tetrahydro-2,6-dioxo-9H-purin-8-yl)cinnamic acid] | active and effective
Cn1c(=O)[nH]c(=O)c2nc(-c3ccc(/C=C/C(=O)O)cc3)[nH]c21 [compound 6, (E)-4-(1,2,3,6-tetrahydro-3-methyl-2,6-dioxo-9H-purin-8-yl)cinnamic acid] | active and effective
CCn1c(=O)[nH]c(=O)c2nc(-c3ccc(/C=C/C(=O)O)cc3)[nH]c21 [compound 7, (E)-4-(3-ethyl-1,2,3,6-tetrahydro-2,6-dioxo-9H-purin-8-yl)cinnamic acid] | active and effective
CCCn1c(=O)[nH]c(=O)c2nc(-c3ccc(/C=C/C(=O)O)cc3)[nH]c21 [compound 8, (E)-4-(1,2,3,6-tetrahydro-2,6-dioxo-3-propyl-9H-purin-8-yl)cinnamic acid] | active and effective
CC(C)Cn1c(=O)[nH]c(=O)c2nc(-c3ccc(/C=C/C(=O)O)cc3)[nH]c21 [compound 9, (E)-4-(1,2,3,6-tetrahydro-3-isobutyl-2,6-dioxo-9H-purin-8-yl)cinnamic acid] | active and effective
CCCn1c(=O)n(C)c(=O)c2nc(-c3ccc(/C=C/C(=O)O)cc3)[nH]c21 [compound 10, (E)-4-(1,2,3,6-tetrahydro-1-methyl-2,6-dioxo-3-propyl-9H-purin-8-yl)cinnamic acid] | active and effective
CC(C)Cn1c(=O)n(C)c(=O)c2nc(-c3ccc(/C=C/C(=O)O)cc3)[nH]c21 [compound 11, (E)-4-(1,2,3,6-tetrahydro-3-isobutyl-1-methyl-2,6-dioxo-9H-purin-8-yl)cinnamic acid] | active and effective
CCn1c(=O)c2nc(-c3ccc(/C=C/C(=O)O)cc3)[nH]c2n(C)c1=O [compound 12, (E)-4-(1-ethyl-1,2,3,6-tetrahydro-3-methyl-2,6-dioxo-9H-purin-8-yl)cinnamic acid] | active and effective
CCCCn1c(=O)c2nc(-c3ccc(/C=C/C(=O)O)cc3)[nH]c2n(CCCC)c1=O [compound 13, (E)-4-(1,3-dibutyl-1,2,3,6-tetrahydro-2,6-dioxo-9H-purin-8-yl)cinnamic acid] | active and effective
O=C(O)/C=C/c1ccc(-c2nc3c(=O)n(Cc4ccccc4)c(=O)n(Cc4ccccc4)c3[nH]2)cc1 [compound 14, (E)-4-(1,3-dibenzyl-1,2,3,6-tetrahydro-2,6-dioxo-9H-purin-8-yl)cinnamicacid] | active and effective
CCCCn1c(=O)n(C)c(=O)c2nc(-c3ccc(/C=C/C(=O)O)cc3)[nH]c21 [compound 15, (E)-4-(3-butyl-1,2,3,6-tetrahydro-1-methyl-2,6-dioxo-9H-purin-8-yl)cinnamicacid] | active and effective
CCCCn1c(=O)c2nc(-c3ccc(/C=C/C(=O)O)cc3)[nH]c2n(C)c1=O [compound 16, (E)-4-(1-butyl-1,2,3,6-tetrahydro-3-methyl-2,6-dioxo-9H-purin-8-yl)cinnamic acid] | active and effective
Cn1c(=O)c2nc(-c3ccc(/C=C/C(=O)O)cc3)[nH]c2n(Cc2ccccc2)c1=O [compound 17, (E)-4-(3-benzyl-1,2,3,6-tetrahydro-1-methyl-2,6-dioxo-9H-purin-8-yl)cinnamic acid] | active and effective
CC(C)Cn1c(=O)c2nc(-c3ccc(/C=C/C(=O)O)cc3)[nH]c2n(CC(C)C)c1=O [compound 18, (E)-4-(1,2,3,6-tetrahydro-1,3-diisobutyl-2,6-dioxo-9H-purin-8-yl)cinnamic acid] | active and effective
Cn1c(=O)c2[nH]c(-c3ccc(/C=C/C(=O)O)cc3)nc2n(C)c1=S [compound 19, (E)-4-(1,2,3,6-tetrahydro-1,3-dimethyl-6-oxo-2-thio-9H-purin-8-yl)cinnamicacid] | active and effective
Cn1c(=O)c2nc(-c3ccc(/C=C/C(=O)O)cc3)[nH]c2n(Cc2ccc(C#N)cc2)c1=O [compound 20, (E)-4-[3-(4-cyanobenzyl)-1,2,3,6-tetrahydro-1-methyl-2,6-dioxo-9H-purin-8-yl]cinnamic acid] | active and effective
Cn1c(=O)c2nc(-c3ccc(/C=C/C(=O)O)cc3)[nH]c2n(Cc2cccc(C#N)c2)c1=O [compound 21, (E)-4-[3-(3-cyanobenzyl)-1,2,3,6-tetrahydro-1-methyl-2,6-dioxo-9H-purin-8-yl]cinnamic acid] | active and effective
CCCn1c(=O)c2nc(-c3ccc(C#CC(=O)O)cc3)[nH]c2n(CCC)c1=O [compound 22, 3-[4-(1,2,3,6-tetrahydro-2,6-dioxo-1,3-dipropyl-9H-purin-8-yl)phenyl]propiolic acid] | active and effective
Cn1c(=O)n(Cc2ccc(C#N)cc2)c(=O)c2nc(-c3ccc(/C=C/C(=O)O)cc3)[nH]c21 [compound 23, (E)-4-[1-(4-cyanobenzyl)-1,2,3,6-tetrahydro-3-methyl-2,6-dioxo-9H-purin-8-yl]cinnamic acid] | active and effective
CCCn1c(=O)n(Cc2ccccc2)c(=O)c2nc(-c3ccc(/C=C/C(=O)O)cc3)[nH]c21 [compound 24, (E)-4-(1-benzyl-1,2,3,6-tetrahydro-2,6-dioxo-3-propyl-9H-purin-8-yl)cinnamic acid] | active and effective
CCCn1c(=O)c2nc(-c3ccc(/C=C/C(=O)O)cc3)[nH]c2n(Cc2ccccc2)c1=O [compound 25, (E)-4-(3-benzyl-1,2,3,6-tetrahydro-2,6-dioxo-1-propyl-9H-purin-8-yl)cinnamic acid] | active and effective
